According to publication PMC8329730 (Journal of medicinal chemistry, 2019):
Counter-ions that a name gives are not always drawn.

Key:
[1] = mouse PK, blood and brain, 10 mg/kg IP; format: in vivo; settings: female, NMRI, whole blood
[2] = toxicity observed on dosing mice; format: in vivo, mouse; settings: 50 mg/kg QD
[3] = human liver microsome intrinsic clearance; settings: human liver microsomes
LogD = format: physicochemical; settings: pH 7.4

With `Cn1nc2c3c(cc(-c4ccnc(N)n4)cc31)Oc1ccccc1N2` [compound 18, 4-(2-Methyl-2,11-dihydrobenzo[2,3][1,4]oxazepino[5,6,7-cd]indazol-4-yl)pyrimidin-2-amine] the Tmax [1] was 15 to 30 min, the “animals dying within 30 minutes of treatment” value [2] was 50% and the “animals experiencing inflammation after dosing” value ([2]; resolved with time) was 50%.

With “1-((6aR,9aR)-4-(2-Aminopyrimidin-4-yl)-6a,7,8,9,9a,10-hexahydro-2H-cyclopenta[2,3][1,4]oxazepino[5,6,7-cd]indazol-2-yl)ethan-1-one [compound 49]” the “HLM Clint” value [3] was “highly cleared”.

In the case of `CCOc1cc(-c2ccnc(N)n2)cc2[nH]nc(N)c12` [57a, 6-(2-Aminopyrimidin-4-yl)-4-ethoxy-1H-indazol-3-amine formate], the Tmax [1] is reported as 15 to 30 min.

Work on `c1ccc2c(c1)Nc1n[nH]c3cccc(c13)O2` [9a] yielded a logD (LogD) of 4.1.
